Results published in ChEMBL document CHEMBL3826966, “A chromatography-free isolation of rohitukine from leaves of Dysoxylum binectariferum: Evaluation for in vitro cytotoxicity, Cdk inhibition and physicochemical properties” (Bioorg Med Chem Lett, 2016).

Columns and labels:
[1] = target: Serine/threonine-protein kinase pim-2 (Homo sapiens) (UniProt Q9P1W9); test: Inhibition of human PIM2 (2 to 334 residues) assessed as remaining enzyme activity at 50 uM after 30 mins by 33P-ATP filter-binding assay
[2] = target: Interleukin-1 receptor-associated kinase 4 (Homo sapiens) (UniProt Q9NWZ3); test: Inhibition of human IRAK4 (14 to 460 residues) assessed as remaining enzyme activity at 50 uM after 30 mins by 33P-ATP filter-binding assay
[3] = target: Tyrosine-protein kinase ZAP-70 (Homo sapiens) (UniProt P43403); test: Inhibition of human ZAP70 (1 to 619 residues) assessed as remaining enzyme activity at 50 uM after 30 mins by 33P-ATP filter-binding assay
[4] = target: Tyrosine-protein kinase Lck (Homo sapiens) (UniProt P06239); test: Inhibition of human LCK (2 to 509 residues) assessed as remaining enzyme activity at 50 uM after 30 mins by 33P-ATP filter-binding assay
[5] = target: Serine/threonine-protein kinase PAK 5 (Homo sapiens) (UniProt Q9P286); test: Inhibition of human PAK5 (2 to 719 residues) assessed as remaining enzyme activity at 50 uM after 30 mins by 33P-ATP filter-binding assay
[6] = target: Homeodomain-interacting protein kinase 3 (Homo sapiens) (UniProt Q9H422); test: Inhibition of human HIPK3 (161 to 562 residues) assessed as remaining enzyme activity at 50 uM after 30 mins by 33P-ATP filter-binding assay
[7] = target: Mitogen-activated protein kinase 11 (Homo sapiens) (UniProt Q15759); test: Inhibition of human p38beta MAPK (1 to 364 residues) assessed as remaining enzyme activity at 50 uM after 30 mins by 33P-ATP filter-binding assay
[8] = target: Dual specificity tyrosine-phosphorylation-regulated kinase 3 (Homo sapiens) (UniProt O43781); test: Inhibition of human DYRK3 (1 to 588 residues) assessed as remaining enzyme activity at 50 uM after 30 mins by 33P-ATP filter-binding assay
[9] = target: Insulin-like growth factor 1 receptor (Homo sapiens) (UniProt P08069); test: Inhibition of human IGF1R (954 to 1367 residues) assessed as remaining enzyme activity at 50 uM after 30 mins by 33P-ATP filter-binding assay
[10] = target: Ephrin type-B receptor 2 (Homo sapiens) (UniProt P29323); test: Inhibition of human EPHB2 (560 to 987 residues) assessed as remaining enzyme activity at 50 uM after 30 mins by 33P-ATP filter-binding assay
[11] = target: Serine/threonine-protein kinase MARK2 (Homo sapiens) (UniProt Q7KZI7); test: Inhibition of human MARK2 (2 to 691 residues) assessed as remaining enzyme activity at 50 uM after 30 mins by 33P-ATP filter-binding assay
[12] = Stability in pH 4 buffer at 120 ug/ml after 8 hrs by RP-HPLC analysis; assay type: physicochemical; settings: pH 4, 8 h
[13] = Cytotoxicity against human HL60 cells assessed as cell growth inhibition after 48 hrs by MTT assay; assay type: functional; settings: HL-60, 48 h
[14] = target: Ephrin type-B receptor 1 (Homo sapiens) (UniProt P54762); test: Inhibition of human EPHB1 (565 to 984 residues) assessed as remaining enzyme activity at 50 uM after 30 mins by 33P-ATP filter-binding assay
[15] = target: Calcium/calmodulin-dependent protein kinase kinase 2 (Homo sapiens) (UniProt Q96RR4); test: Inhibition of human CAMKKbeta (1 to 541 residues) assessed as remaining enzyme activity at 50 uM after 30 mins by 33P-ATP filter-binding assay
[16] = system: MAP3K9; test: Inhibition of human MLK1 (132 to 413 residues) assessed as remaining enzyme activity at 50 uM after 30 mins by 33P-ATP filter-binding assay
[17] = target: Serine/threonine-protein kinase BRSK2 (Homo sapiens) (UniProt Q8IWQ3); test: Inhibition of human BRSK2 (2 to 674residues) assessed as remaining enzyme activity at 50 uM after 30 mins by 33P-ATP filter-binding assay
[18] = target: CDK2/Cyclin A2 (Homo sapiens, UniProt P24941); test: Inhibition of human Cdk2/cyclin A using histone H1 substrate after 30 mins by 33P-ATP filter-binding assay; assay type: protein-complex assay
[19] = target: Mitogen-activated protein kinase kinase kinase 5 (Homo sapiens) (UniProt Q99683); test: Inhibition of human ASK1 (670 to 950 residues) assessed as remaining enzyme activity at 50 uM after 30 mins by 33P-ATP filter-binding assay
[20] = target: Tyrosine-protein kinase ABL1 (Homo sapiens) (UniProt P00519); test: Inhibition of human ABL (118 to 535 residues) assessed as remaining enzyme activity at 50 uM after 30 mins by 33P-ATP filter-binding assay
[21] = target: Serine/threonine-protein kinase PAK 2 (Homo sapiens) (UniProt Q13177); test: Inhibition of human PAK2 assessed as remaining enzyme activity at 50 uM after 30 mins by 33P-ATP filter-binding assay
[22] = Cytotoxicity against human MIAPaCa2 cells assessed as cell growth inhibition after 48 hrs by MTT assay; assay type: functional; settings: MIA PaCa-2, 48 h
[23] = target: Tyrosine-protein kinase BTK (Homo sapiens) (UniProt Q06187); test: Inhibition of human BTK (2 to 659 residues) assessed as remaining enzyme activity at 50 uM after 30 mins by 33P-ATP filter-binding assay
[24] = target: Casein kinase I isoform delta (Homo sapiens) (UniProt P48730); test: Inhibition of human CK1delta (1 to 415 residues) assessed as remaining enzyme activity at 50 uM after 30 mins by 33P-ATP filter-binding assay
[25] = Cytotoxicity against human BxPC3 cells assessed as cell growth inhibition after 48 hrs by MTT assay; assay type: functional; settings: BXPC-3, 48 h
[26] = system: LNCaP; test: Cytotoxicity against human LNCAP cells assessed as cell growth inhibition after 48 hrs by MTT assay; assay type: functional
[27] = system: MDA-MB-231; test: Cytotoxicity against human MDA-MB-231 cells assessed as cell growth inhibition after 48 hrs by MTT assay; assay type: functional; settings: MDA-MB-231, 48 h
[28] = target: Receptor tyrosine-protein kinase erbB-4 (Homo sapiens) (UniProt Q15303); test: Inhibition of human HER4 (706 to 991 residues) assessed as remaining enzyme activity at 50 uM after 30 mins by 33P-ATP filter-binding assay
[29] = Partition coefficient, logP of the compound in water/PBS buffer at pH 7.4 at 25 degC after 20 mins by shake flask method; assay type: physicochemical
[30] = Ionization constant, pKa of the compound in buffer at pH 1 to 13 by uV spectrophotometry; assay type: physicochemical
[31] = Cell cycle arrest in human HL60 cells assessed as accumulation at G2 phase at 1 uM (reference value: 5 %); assay type: functional, cell-based; settings: HL-60

Ephrin type-B receptor 2 (Homo sapiens), sequence (P29323 whole entry, the tested form may be a part): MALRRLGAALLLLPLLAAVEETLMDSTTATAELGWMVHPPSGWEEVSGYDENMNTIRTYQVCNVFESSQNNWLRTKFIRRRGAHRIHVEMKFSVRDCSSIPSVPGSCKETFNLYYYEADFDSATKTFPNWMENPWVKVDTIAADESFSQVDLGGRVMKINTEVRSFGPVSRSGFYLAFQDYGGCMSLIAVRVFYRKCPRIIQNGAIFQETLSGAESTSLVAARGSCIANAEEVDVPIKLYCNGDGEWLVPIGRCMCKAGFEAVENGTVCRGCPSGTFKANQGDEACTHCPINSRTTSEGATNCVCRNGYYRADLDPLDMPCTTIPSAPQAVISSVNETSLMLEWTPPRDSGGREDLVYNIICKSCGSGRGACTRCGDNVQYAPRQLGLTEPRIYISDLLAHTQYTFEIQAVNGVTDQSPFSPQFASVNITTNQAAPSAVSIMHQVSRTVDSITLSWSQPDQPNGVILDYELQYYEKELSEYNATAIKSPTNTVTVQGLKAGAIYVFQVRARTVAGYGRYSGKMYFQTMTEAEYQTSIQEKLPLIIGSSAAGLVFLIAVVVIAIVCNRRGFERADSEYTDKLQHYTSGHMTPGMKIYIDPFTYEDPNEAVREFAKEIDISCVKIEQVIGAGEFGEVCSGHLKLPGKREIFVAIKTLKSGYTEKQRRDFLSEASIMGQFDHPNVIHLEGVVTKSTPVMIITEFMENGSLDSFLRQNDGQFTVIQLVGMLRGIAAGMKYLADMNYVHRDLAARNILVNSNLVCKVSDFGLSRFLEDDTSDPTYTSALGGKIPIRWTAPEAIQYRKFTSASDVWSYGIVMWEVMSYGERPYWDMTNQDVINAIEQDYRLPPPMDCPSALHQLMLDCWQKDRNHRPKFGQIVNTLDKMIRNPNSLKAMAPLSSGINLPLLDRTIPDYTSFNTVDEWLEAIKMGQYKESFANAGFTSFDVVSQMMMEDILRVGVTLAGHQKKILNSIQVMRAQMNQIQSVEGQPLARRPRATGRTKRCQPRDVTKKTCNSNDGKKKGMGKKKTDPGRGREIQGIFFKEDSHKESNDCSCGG
Receptor tyrosine-protein kinase erbB-4 (Homo sapiens), sequence (Q15303 whole entry, the tested form may be a part): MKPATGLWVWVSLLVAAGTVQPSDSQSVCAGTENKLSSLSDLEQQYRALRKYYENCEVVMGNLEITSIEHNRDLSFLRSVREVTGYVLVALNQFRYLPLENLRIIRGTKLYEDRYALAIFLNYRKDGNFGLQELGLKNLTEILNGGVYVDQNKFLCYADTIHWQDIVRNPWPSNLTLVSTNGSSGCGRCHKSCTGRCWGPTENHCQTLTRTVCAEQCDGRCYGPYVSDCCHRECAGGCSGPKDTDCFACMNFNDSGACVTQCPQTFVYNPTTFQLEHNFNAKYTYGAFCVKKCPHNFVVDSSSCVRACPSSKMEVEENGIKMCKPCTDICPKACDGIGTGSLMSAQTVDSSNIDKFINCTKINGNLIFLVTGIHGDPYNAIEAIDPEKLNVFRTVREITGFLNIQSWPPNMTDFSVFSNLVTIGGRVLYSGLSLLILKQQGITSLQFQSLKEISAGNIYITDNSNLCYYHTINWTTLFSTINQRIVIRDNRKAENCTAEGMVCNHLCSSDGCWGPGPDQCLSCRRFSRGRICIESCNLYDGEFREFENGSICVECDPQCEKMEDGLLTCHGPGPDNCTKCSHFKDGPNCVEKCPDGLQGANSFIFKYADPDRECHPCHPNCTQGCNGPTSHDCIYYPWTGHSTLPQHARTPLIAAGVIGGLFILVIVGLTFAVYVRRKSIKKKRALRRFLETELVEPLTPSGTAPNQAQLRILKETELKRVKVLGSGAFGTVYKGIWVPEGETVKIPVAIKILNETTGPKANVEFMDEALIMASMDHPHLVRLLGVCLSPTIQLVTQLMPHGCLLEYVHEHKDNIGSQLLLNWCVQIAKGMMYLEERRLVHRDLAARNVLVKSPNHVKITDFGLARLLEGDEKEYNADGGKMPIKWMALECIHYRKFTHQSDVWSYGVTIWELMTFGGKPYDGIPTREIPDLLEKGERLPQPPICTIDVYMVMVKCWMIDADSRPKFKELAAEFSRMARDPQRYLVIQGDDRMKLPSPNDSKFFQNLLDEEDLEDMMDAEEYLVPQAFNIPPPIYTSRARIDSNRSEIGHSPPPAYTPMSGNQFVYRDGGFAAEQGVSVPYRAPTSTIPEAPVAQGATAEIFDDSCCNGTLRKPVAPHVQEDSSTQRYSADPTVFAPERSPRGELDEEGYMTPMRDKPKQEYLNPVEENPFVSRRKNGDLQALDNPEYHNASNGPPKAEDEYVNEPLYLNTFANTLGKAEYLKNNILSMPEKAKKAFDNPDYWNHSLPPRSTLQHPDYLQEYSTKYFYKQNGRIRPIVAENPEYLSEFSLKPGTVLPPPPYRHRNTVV
Tyrosine-protein kinase ZAP-70 (Homo sapiens), sequence (P43403 whole entry, the tested form may be a part): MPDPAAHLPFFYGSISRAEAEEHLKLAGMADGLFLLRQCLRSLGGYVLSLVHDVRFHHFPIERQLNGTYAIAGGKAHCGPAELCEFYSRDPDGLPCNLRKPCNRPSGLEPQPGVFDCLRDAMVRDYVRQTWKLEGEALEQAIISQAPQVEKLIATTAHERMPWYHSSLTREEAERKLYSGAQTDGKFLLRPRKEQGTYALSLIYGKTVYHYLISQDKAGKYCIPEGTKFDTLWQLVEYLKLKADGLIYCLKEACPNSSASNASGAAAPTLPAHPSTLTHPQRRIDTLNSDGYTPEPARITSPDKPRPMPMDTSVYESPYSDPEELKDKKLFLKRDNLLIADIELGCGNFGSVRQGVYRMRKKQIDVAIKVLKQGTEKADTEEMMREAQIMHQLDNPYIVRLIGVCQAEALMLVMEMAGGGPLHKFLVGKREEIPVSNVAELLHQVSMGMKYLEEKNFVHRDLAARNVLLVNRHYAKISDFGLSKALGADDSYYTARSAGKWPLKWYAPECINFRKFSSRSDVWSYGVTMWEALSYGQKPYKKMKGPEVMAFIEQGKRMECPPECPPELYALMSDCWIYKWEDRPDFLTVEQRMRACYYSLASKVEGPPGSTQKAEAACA
Serine/threonine-protein kinase BRSK2 (Homo sapiens), sequence (Q8IWQ3 whole entry): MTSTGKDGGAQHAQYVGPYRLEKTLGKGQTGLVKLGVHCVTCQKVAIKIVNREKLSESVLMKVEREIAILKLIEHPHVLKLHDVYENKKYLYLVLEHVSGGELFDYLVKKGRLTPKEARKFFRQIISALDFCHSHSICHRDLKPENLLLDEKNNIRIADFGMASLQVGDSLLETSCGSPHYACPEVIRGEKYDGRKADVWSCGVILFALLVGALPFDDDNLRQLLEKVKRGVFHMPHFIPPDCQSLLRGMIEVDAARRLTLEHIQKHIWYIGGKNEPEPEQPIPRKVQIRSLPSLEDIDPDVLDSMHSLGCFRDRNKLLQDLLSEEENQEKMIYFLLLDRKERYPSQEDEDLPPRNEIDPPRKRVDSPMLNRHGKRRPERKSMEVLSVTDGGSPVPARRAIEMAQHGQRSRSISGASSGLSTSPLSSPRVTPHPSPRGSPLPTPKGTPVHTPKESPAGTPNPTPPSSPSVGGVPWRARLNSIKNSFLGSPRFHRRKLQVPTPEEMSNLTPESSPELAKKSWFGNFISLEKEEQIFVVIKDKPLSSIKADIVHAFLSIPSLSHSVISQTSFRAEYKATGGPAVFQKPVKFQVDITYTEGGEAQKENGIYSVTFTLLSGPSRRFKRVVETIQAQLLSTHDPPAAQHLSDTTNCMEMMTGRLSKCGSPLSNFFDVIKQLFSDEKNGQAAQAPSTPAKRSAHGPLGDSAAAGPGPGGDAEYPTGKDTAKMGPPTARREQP
Tyrosine-protein kinase Lck (Homo sapiens), sequence (P06239 2-509 limits assumed): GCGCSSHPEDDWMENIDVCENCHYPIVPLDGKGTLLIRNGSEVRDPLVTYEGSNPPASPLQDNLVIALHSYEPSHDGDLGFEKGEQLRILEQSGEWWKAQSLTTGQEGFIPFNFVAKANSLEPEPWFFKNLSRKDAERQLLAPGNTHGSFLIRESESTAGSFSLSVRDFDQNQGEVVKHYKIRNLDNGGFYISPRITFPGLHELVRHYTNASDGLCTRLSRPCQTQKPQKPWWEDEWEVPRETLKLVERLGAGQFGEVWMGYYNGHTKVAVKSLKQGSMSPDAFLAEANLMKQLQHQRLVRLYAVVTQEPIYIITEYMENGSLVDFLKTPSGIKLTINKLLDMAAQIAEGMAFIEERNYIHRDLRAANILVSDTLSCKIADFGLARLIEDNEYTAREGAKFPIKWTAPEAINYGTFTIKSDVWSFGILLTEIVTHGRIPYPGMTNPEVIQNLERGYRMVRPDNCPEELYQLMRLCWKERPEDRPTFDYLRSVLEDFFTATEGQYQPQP
Serine/threonine-protein kinase MARK2 (Homo sapiens), sequence (Q7KZI7 whole entry, the tested form may be a part): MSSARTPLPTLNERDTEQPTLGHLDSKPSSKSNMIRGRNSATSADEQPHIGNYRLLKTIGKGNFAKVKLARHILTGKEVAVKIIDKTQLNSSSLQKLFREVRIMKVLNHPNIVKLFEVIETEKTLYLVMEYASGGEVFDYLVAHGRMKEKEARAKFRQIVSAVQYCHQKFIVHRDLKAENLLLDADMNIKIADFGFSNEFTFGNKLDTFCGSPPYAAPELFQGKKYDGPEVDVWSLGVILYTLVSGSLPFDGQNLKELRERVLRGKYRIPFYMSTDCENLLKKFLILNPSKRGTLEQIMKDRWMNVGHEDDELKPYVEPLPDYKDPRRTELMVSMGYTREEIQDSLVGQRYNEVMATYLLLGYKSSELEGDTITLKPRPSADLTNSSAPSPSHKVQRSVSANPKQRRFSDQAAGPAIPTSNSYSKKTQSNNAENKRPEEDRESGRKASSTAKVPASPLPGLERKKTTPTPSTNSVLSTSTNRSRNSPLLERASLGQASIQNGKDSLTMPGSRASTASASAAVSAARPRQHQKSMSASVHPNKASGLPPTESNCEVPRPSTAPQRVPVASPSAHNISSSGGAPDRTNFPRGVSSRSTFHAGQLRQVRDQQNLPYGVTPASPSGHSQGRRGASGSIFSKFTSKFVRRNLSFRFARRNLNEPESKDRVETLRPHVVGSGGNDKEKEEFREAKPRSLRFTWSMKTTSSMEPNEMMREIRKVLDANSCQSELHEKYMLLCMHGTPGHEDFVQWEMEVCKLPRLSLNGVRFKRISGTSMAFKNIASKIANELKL

Activity [1]: 67% | Activity [2]: 75% | Activity [3]: 103% | Activity [4]: 45% | Activity [5]: 87% | Activity [6]: 100% | Activity [7]: 76% | Activity [8]: 77% | Activity [9]: 113% | Activity [10]: 81% | Activity [11]: 69% | Stability [12]: Stable | Activity [14]: 54% | Activity [15]: 18% | Activity [16]: 47% | Activity [17]: 65% | IC50 [18]: 7.3 µM | Activity [19]: 96% | Activity [20]: 87% | Activity [21]: 88% | Activity [23]: 58% | Activity [24]: 78% | Activity [28]: 79% | logD at 20 min [29]: -0.55 | pKa [30]: 5.83
SMILES: Cc1cc(=O)c2c(O)cc(O)c([C@H]3CCN(C)C[C@H]3O)c2o1 [ROHITUKINE]
GI50 [13]: 10 µM | GI50 [22]: 19 µM | GI50 [25]: 20 µM | GI50 [26]: 30 µM | GI50 [27]: 13 µM | Activity [31]: 13%
